In a melting point compilation (Tetko et al.; mined from patent text by program, amines drawn as free bases though some values may be those of a salt):

SMILES	melting point [°C]
CN1CCC(Cn2c(=O)[nH]c3ncc(-c4ccc(O)cc4)nc32)CC1	292 to 294
CC(=O)NC1(c2ccc(C(C)=O)cc2)CC1	128 to 131
COCCOc1ncc(Br)nc1-c1ccc(Cl)cc1	79 to 80
CC(C)NC1=NS(=O)(=O)c2cccc(Cl)c2N1	124 to 125
CN1C(=O)[C@H](NC(=O)CCc2ccccc2C(F)(F)F)N=C(c2ccccc2)c2ccccc21	110 to 113
COC(=O)CCC(=O)SCC(=O)NC(C)=O	111 to 113
CC(C)C1CNCc2cccc3[nH]c(=O)n1c23 (centres undefined)	167
N#Cc1cn(C2CC(O)C(CO)O2)c(=O)[nH]c1=O (centres undefined)	161
Cc1c(C)c2c(c(C)c1O)CCC(C)(C(=O)N1CC(Oc3ccc(NC(=O)OC(C)(C)C)cc3)C1)O2 (centres undefined)	182 to 183
CC(C)(O)Cn1c(CO)nc2c(N)nc3cc(CCC(=O)N4CCOCC4)ccc3c21	223 to 225
O=c1[nH]sc2nc(N3CCCCC3)ncc12	268 to 269
CCOC(=O)c1cn(-c2ccc(C(F)(F)F)cn2)nc1C(C)CC (centres undefined)	63 to 64
O=C(NC1CCSCC1)c1cnccc1C(F)(F)F	161 to 163
COP(=O)(OC)C(C)NC(=O)C(C)NC(=O)C(C)NC(=O)CNC(C)(C)C (centres undefined)	148 to 152
CCOC(=O)c1cc(OC)c2c(C)c(CCN(CC)CC)c(=O)oc2c1Br	150 to 151
O=C(COc1ccc2ccccc2c1)N1CCCN(c2cc(N3CCCC3)nc(N3CCCC3)n2)CC1	103 to 110
CCON=C(CC)C1=C(O)CC(c2ccc(NC=O)cc2)CC1=O (centres undefined)	111 to 114
COc1ccc(N2CCOCC2)c2sc(-c3nc4ccc(N5CCOCC5)nc4[nH]3)nc12	260 to 262
CCCC(C)CC(C)(C)NC(=O)CN1C(=O)c2ccccc2C1=O (centres undefined)	132

SMILES	melting point [°C]
CCC1Cc2cc(OCC(=O)OC)c(Cl)c(Cl)c2C1=O (centres undefined)	134 to 137
CN=C1N(C)C(=O)CN1c1ccc(Cl)cc1	150 to 152
CCC(=O)Nc1c(C)c2c(c(Cc3ccc(C(C)C)cc3)c1C)OCC2	177 to 178
Cn1c(CC(C)(C)C(=O)O)c(C(=O)c2ccc(Cl)cc2)c2ccc(OCc3ccc4ccccc4n3)cc21	203 to 205
CC(C)(C)c1cc(OCCCCC#N)cc(C(C)(C)C)c1	61 to 64
COc1c(N)cc(C(=O)O)cc1S(N)(=O)=O	210
Nc1ccc(C23CC2C(=O)N(CC2CCCCC2)C3=O)cc1 (centres undefined)	125 to 126
CC(=O)Nc1ncnc2[nH]nc(C#N)c12	> 360
CC(C)(C)OC(=O)NC(C(=O)O)c1c[nH]c2ccccc12 (centres undefined)	144
N#CCCc1cccc(-c2ccc3cnc(Nc4ccc5c(c4)CCC(N4CCOCC4)CC5)nn23)c1 (centres undefined)	184 to 186
CCCCSc1cc([N+](=O)[O-])cc(C(O)=NC)c1C(=O)O	106 to 108
COC(=O)NC(CCSC)C(N)=O (racemic)	93 to 94
COC(=O)c1sc2cc(CO)ccc2c1C	121 to 123
COc1c(O)c(C)c(CN2CCN(C(=S)SC)CC2)c(O)c1OC	135 to 136
CC(C)(C)OC(=O)C(N)c1nc(-c2ncn3c2C2CCN2C(=O)c2cc(F)ccc2-3)no1 (centres undefined)	147 to 150
N#CNC(=N)NCCc1c[nH]cn1	152 to 154
COc1cc(OC)c2c(=O)[nH]c(-c3ccc(CN4C(=O)CNC4=O)cc3)nc2c1	317 to 318
O=C(C(=O)N1CCCCC1)C(Cl)Cl	< 50
CCCCCCCCc1ccc(N(c2ccc(CCCCCCCC)cc2)C2(c3ccc(N(CC)CC)cc3C)OC(=O)c3nccnc32)cc1 (centres undefined)	180 to 187

SMILES	melting point [°C]
CC(=O)Nc1ccc(C(=O)c2cc(-c3ccc(S(C)(=O)=O)cc3)c(N3CCOCC3)s2)cc1	129
CC1(C)CC(=O)C2=C(C1)NC1=C(C(=O)CC(C)(C)C1)C2c1cc(Br)cc(Br)c1	288 to 290
CCCCCCOc1c(OC)cc(N)c2ncccc12	168 to 171
O=C(NC(=O)c1c(Cl)cccc1Cl)Nc1cncc(C(F)(F)F)n1	188 to 192
NC(=O)c1cc(CO)ccc1[N+](=O)[O-]	143 to 145
CC(=O)SCCC(=O)N1CCC=C1C(=O)O	89 to 91
Cn1ccnc1SCC(O)(Cn1cncn1)c1ccc(Cl)cc1Cl (centres undefined)	159 to 161
O=C1Nc2ccc(Cl)cc2C1c1ncnc2c1cnn2C1CCCCC1 (centres undefined)	300 to 305
CC(=O)N1CCc2nc(C)nc(-c3ccc(Cl)cc3)c2C1	139 to 141
CCn1ncc2c1ncc1c(OCCC(C)C)nc3cc(C)nn3c12	60 to 62
NC(=C[N+](=O)[O-])NC1=CC2CCC1C2 (centres undefined)	128 to 132
CCn1cnc2c(Nc3cccc(C(=O)OC)c3)nc(Cl)nc21	148
COc1cc2oc(=O)c3c(c2cc1OC)CCN(CCN1CC2CCC1CC2)C3	133 to 135
CC(C)(C)c1cc(SC2CC(=O)N(c3ccc(N4C(=O)CC(Sc5cc(C(C)(C)C)c(O)c(C(C)(C)C)c5)C4=O)cc3)C2=O)cc(C(C)(C)C)c1O (centres undefined)	274 to 278
CCN(CC)C(=O)Cc1c(-c2ccc(Cl)cc2)nc2c(C)cc(C)nn12	162 to 165
CC#CCOc1ccc(S(=O)(=O)NC2(C(=O)O)CCCCC2)cc1	112 to 114
O=C(NS(=O)(=O)C(F)(F)F)c1cccc([N+](=O)[O-])c1	80 to 83
CCCCCCCNC(=O)Nc1ccc(N2CCCCC2)cc1C(=O)NCC1CCN(C(c2ccccc2)c2ccccc2)CC1	166 to 168
N[C@H]1CC[C@H](Nc2cc(C(F)(F)F)nc3c(C(F)(F)F)cccc23)CC1	173

Second part, the molecule after the results:

melting point [°C]	SMILES
164 to 165	CN1CCC(Oc2ccc(Cl)cc2)(c2ccccc2)C(O)C1 (centres undefined)
120 to 121	CC(C#N)(COc1ccc(Cl)cc1)NS(=O)(=O)Cc1ccccc1 (centres undefined)
84 to 89	CC(C)NCC(O)c1cc(CO)cc(OCc2ccccc2)c1 (centres undefined)
155 to 157	COc1ccc(Cl)cc1NC(=O)[C@H]1[C@H](c2ccccc2)C1(C)C (relative stereo)
118 to 120	O=C(CN1CCC(Cc2ccc(F)cc2)CC1)Nc1cccc([N+](=O)[O-])c1
125 to 126	O=C(c1ccc(Br)cc1F)N1CCN(c2ccncc2)CC1
280	CCCCn1ccc(-c2ccc(Oc3ccc(C(=O)O)cc3)cc2)c(Cl)c1=O
145 to 151	O=C(NCCCCCCCCc1ccccc1)c1cc(-c2cccc(C(F)(F)F)c2)cc(-c2cccc(C(F)(F)F)c2OCCCCc2nnn[nH]2)c1
190	O=C(Nc1ccc2[nH]ncc2c1)O[C@@H](c1cccc(C(F)(F)F)c1)[C@@H]1CCCCN1
78 to 81	C=CCc1cccc2c(=O)cc(-c3ccccc3F)oc12
167 to 168	Cn1cccc1C1=CC(=O)c2ncccc2C1=O
78 to 80	CCOc1cc(C(CC(=O)OC)N2Cc3ccccc3C2=O)ccc1OC (centres undefined)
120	CCOC(=O)Nc1cccc(C(=O)Nc2ccc3ccc(OC)nc3n2)c1
148 to 152	CCOC(=O)c1cc(=O)cc(-c2cccc([N+](=O)[O-])c2)o1
234 to 238	O=c1c2c(Cc3cccs3)n[nH]c2c2cccnc2n1-c1cccc(OC(F)(F)F)c1
130 to 132	CN(C(=O)NCCO)C1c2ccccc2Oc2ccccc21
206	CCc1ccnc(C(=O)c2[nH]c3ccc(CC)cc3c2CC(=O)O)c1
118 to 120	CC1Cc2cc(Cl)ccc2C(c2ccc([N+](=O)[O-])cc2)O1 (centres undefined)
115 to 117	CCOC(=O)C=CC(=O)c1ccc(-c2ccc(F)cc2)cc1
183 to 185	O=C(Nc1ccc(C(=O)Oc2ccccc2)c(Cl)c1)NS(=O)(=O)c1ccccc1
231 to 232	Cc1nnc(-c2ccc3scc(-c4ccc(S(C)(=O)=O)cc4)c3c2)o1

melting point [°C]	SMILES
208 to 209	Cc1nc(N2CCN(Cc3ccccc3)C2=O)sc1C(=O)NCc1cc(F)cc(F)c1
85 to 86	c1ccc(COc2cccc(-n3cnnn3)c2)cc1
119 to 120	Cc1cc(C(=O)NCO)ncc1C(c1c(F)ccc(F)c1F)S(=O)(=O)c1ccc(F)c(F)c1 (centres undefined)
54	CCCOC(=O)c1ccc(OCCCCCCCc2cc(C)no2)cc1
129 to 130	O=C(c1cc2ccccc2s1)C1CCN(CCc2ccccc2)CC1
202 to 204	CCc1cccc2[nH]c(=O)oc(=O)c12
179 to 180	O=C(NCc1cccnc1)Nc1cc(N2CC(c3ccccc3)CC2=O)ccn1 (centres undefined)
112 to 113	Fc1cc2c(c(-c3c(Cl)cccc3Cl)c1)OC(CNC1CC1)C2 (centres undefined)
111 to 112	Cc1oc(-c2ccccc2)nc1COc1cncc(CO)c1
187 to 188	CC(=O)N1Cc2c(-c3noc(C4CC4)n3)ncn2-c2ccccc21
61 to 63	CC(Cl)C(=O)CCCCN1C(=O)c2ccccc2C1=O (centres undefined)
169 to 171	CC(C)c1cccc(C(C)C)c1NS(=O)(=O)CC(=S)Oc1c(C(C)C)cccc1C(C)C
118 to 119	CCOC(=O)N1Cc2ccccc2C(Oc2ccc([N+](=O)[O-])cc2)C1 (centres undefined)
180 to 181	COC(=O)c1ccc2[nH]c3ccccc3c2c1
259 to 261	CSCC#Cc1cc(F)c2ncc(C(=O)NCc3ccc(Cl)cc3)c(O)c2c1
100 to 108	CCc1cc(C(F)(C(F)(F)F)C(F)(F)F)cc(C)c1NC(=O)c1cccc(N=S=O)c1
89 to 91	O=C(O)c1cn(-c2cccc(F)c2)c2c(F)c(F)c(F)cc2c1=O
38.5 to 40.5	CC(C)(CO)NC(=O)c1ccccc1-c1ccccc1
152 to 154	O=C1Cc2cc(NC(=O)C(=O)N3CCC(Cc4ccc(F)cc4)CC3)ccc2N1
139 to 142	CCOC(=O)C1=C(C)NC(C)=C(C(=O)OCC)C1c1csc2ccccc12
199 to 216	CC(C)c1ccc(S(=O)(=O)n2c(Cc3ccc(C(=O)O)s3)cc3cc(C(F)(F)F)ccc32)cc1
